The values that follow come from patent US9278920B2, “Pleuromutilin derivatives for use in the treatment of diseases mediated by microbes” (Nabriva Therapeutics AG, priority 2010, dated 2016).

Experiment [1] relates to Staphylococcus aureus ATCC49951. Description: MIC by Agar Dilution Test or Microdilution Test (CLSI M7-A7). The experiment is classed as cell-based. The settings on record: in vitro, strain ATCC49951, read-out: MIC against Staphylococcus aureus ATCC49951. The protocol:
(§1) The in vitro activity against aerobic bacteria was determined by Agar Dilution Test or Microdilution Test according to the Clinical and Laboratory Standards Institute (CLSI, former NCCLS) Document M7-A7 Vol. 26, No. 2: “Methods for Dilution Antimicrobial Susceptibility Tests for Bacteria that Grow Aerobically—Approved Standard; Seventh Edition (2006)”; and the test against anaerobic bacteria was performed according to the Clinical and Laboratory Standards Institute (CLSI, former NCCLS), Document, M11-A6, Vol. 24, No. 2: “Methods for Antimicrobial Susceptibility Testing of Anaerobic Bacteria—Approved Standard; Sixth Edition (2004)” and the in vivo activity was tested by the septicemia mouse model against Staphylococcus aureus.
(In agar dilution the substance is mixed into plates at graded concentrations.)

Experiment [2] relates to Streptococcus pneumoniae ATCC49619. Described as above. The experiment is classed as cell-based. The settings on record: in vitro, strain ATCC49619, read-out: MIC against Streptococcus pneumoniae ATCC49619. The protocol:
as §1

Where a name gives a salt, the structure may show the parent alone.

As usually defined, the MIC is the smallest concentration in the dilution series that meets the test's criterion for growth inhibition. As for `C=C[C@]1(C)C[C@@H](OC(=O)CSC2CCC(N)CCC2O)[C@]2(C)C(C)CCC3(CCC(=O)C32)[C@@H](C)C1O` (mixture of isomers) [Example 12, 14-O-{[(1R, 2R, 5R)-5-Amino-2-hydroxy-cycloheptylsulfanyl]-acetyl}-mutilin hydrochloride and the (1S, 2S, 5S), (1R, 2R, 5S), (1S, 2S, 5R) diastereomers thereof], the minimum inhibitory concentration (MIC) in experiment [1] and in experiment [2] was no more than 2 µg/mL each time.
